Reference: patent US11827628B2, “Compositions and methods for inhibition of the JAK pathway” (Rigel Pharmaceuticals, Inc., priority 2005, dated 2023)
Structures can show the parent of a compound that is named as a salt.

How the values were obtained:
[1] = tested on: IL-4 stimulated expression of CD23 in human Ramos B cells (JAK-1 and JAK-3); test: Assay for Ramos B-Cell Line Stimulated with IL-4 (CD23 upregulation, FACS); assay type: cell-based; conditions: Homo sapiens, Ramos, Ramos B cells stimulated with IL-4, CD23 expression by FACS; read-out: IC50, Example 41
In short: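 Read-out is surface CD23 by FACS after anti-CD23-PE staining, giving IC50. Before this, cells were stimulated 20-24 h with 50 units/mL (final) human IL-4, following 1 h compound or vehicle pre-treatment at 37 °C; log-phase Ramos B cells, 5×10^4 per well in 5% serum RPMI.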

Primary human T-cells = test: Primary Human T-Cell Proliferation Assay Stimulated with IL-2 (CellTiter-Glo); assay type: cell-based; conditions: Homo sapiens, T-cell, primary human T-cells stimulated with IL-2, proliferation; read-out: IC50, Example 42
In short: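 Peripheral blood T-cells pre-activated with anti-CD3/anti-CD28 and IL-2 were washed free of IL-2, then cultured with compound plus IL-2 for 72 hours at 37° C, duplicate wells. Viability read as ATP by CellTiter-Glo luminescence; IC50 reported.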

SMILES | IC50 [1] [nM] | IC50 (Primary human T-cells) [nM]
COc1ccc(Nc2nc(Nc3ccc(N4CCN(C)CC4)c(S(N)(=O)=O)c3)ncc2F)cc1Cl [VI-116, N2-[3-Aminosulfonyl-4-(4-methylpiperazine-1-yl)phenyl]-N4-(3-chloro-4-methoxyphenyl)-5-fluoro-2,4-pyrimidinediamine] | 31.1 | 174
Cc1ccc(Nc2ncc(F)c(Nc3ccc(C)c(S(N)(=O)=O)c3)n2)cc1S(N)(=O)=O [VI-114, N2,N4-Bis-(3-aminosulfonyl-4-methylphenyl)-5-fluoro-2,4-pyrimidinediamine] | 210 | 2240
C#CCn1ccc2cc(Nc3nc(Nc4cccc(S(N)(=O)=O)c4)ncc3F)ccc21 [IX-2, N2-(3-Aminosulfonylphenyl)-5-fluoro-N4-[1-(propyn-3-yl)indol-5-yl]-2,4-pyrimidinediamine] | 79.5 | 282
C#CCOc1ccc(Nc2nc(Nc3ccc(C)c(S(N)(=O)=O)c3)ncc2F)cc1F [VI-60, N2-(3-Aminosulfonyl-4-methylphenyl)-5-fluoro-N4-[3-fluoro-4-(prop-2-ynyloxy)phenyl]-2,4-pyrimidinediamine] | 86.9 | 187
NS(=O)(=O)c1cc(Nc2ncc(F)c(Nc3ccc(O)cc3)n2)ccc1F [VI-100, N2-(3-Aminosulfonyl-4-fluorophenyl)-5-fluoro-N4-(4-hydroxyphenyl)-2,4-pyrimidinediamine] | 321 | 74.3
NS(=O)(=O)c1ccc(Nc2ncc(F)c(Nc3ccc(CCCCO)cc3)n2)cc1 [VI-88, N2-(4-Aminosulfonylphenyl)-5-fluoro-N4-[4-(4-hydroxybutyl)phenyl]-2,4-pyrimidinediamine] | 216 | 1190
N#CCc1c[nH]c2ccc(Nc3nc(Nc4cccc(S(N)(=O)=O)c4)ncc3F)cc12 [IX-13, N2-(3-Aminosulfonylphenyl)-N4-(3-cyanomethyl-1H-indol-5-yl)-5-fluoro-2,4-pyrimidinediamine] | 138 | 430
N#CCc1c[nH]c2cc(Nc3nc(Nc4cccc(S(N)(=O)=O)c4)ncc3F)ccc12 [IX-12, N2-(3-Aminosulfonylphenyl)-N4-(3-cyanomethyl-1H-indol-6-yl)-5-fluoro-2,4-pyrimidinediamine] | 97.3 | 117
COc1ccc(Nc2nc(Nc3cc(Cl)c(C)c(S(N)(=O)=O)c3)ncc2F)cc1Cl [VI-13, N2-(3-Aminosulfonyl-5-chloro-4-methylphenyl)-N4-(3-chloro-4-methoxyphenyl)-5-fluoro-2,4-pyrimidinediamine] | 96.5 | 1350
Cc1ccc(Nc2ncc(F)c(Nc3ccc(C(F)(F)F)cc3)n2)cc1S(N)(=O)=O [VI-50, N2-(3-Aminosulfonyl-4-methylphenyl)-5-fluoro-N4-(4-trifluoromethylphenyl)-2,4-pyrimidinediamine] | 217 | 944
NS(=O)(=O)c1cccc(Nc2ncc(F)c(Nc3ccc(Cc4ccncc4)cc3)n2)c1 [III-128, N2-(3-Aminosulfonylphenyl)-5-fluoro-N4-[4-(4-pyridylmethyl)phenyl]-2,4-pyrimidinediamine p-Toluenesulfonic Acid Salt] | 145 | 139
NS(=O)(=O)c1cccc(Nc2ncc(F)c(Nc3ccc(-c4cnco4)cc3)n2)c1 [IV-5, N2-(3-Aminosulfonylphenyl)-5-fluoro-N4-[4-(1,3-oxazol-5-yl)phenyl]-2,4-pyrimidinediamine] | 97.7 | 116
COc1ccc(Nc2nc(Nc3cccc(S(N)(=O)=O)c3)ncc2Br)cc1Cl [VI-26, N2-(3-aminosulfonylphenyl)-5-bromo-N4-(3-chloro-4-methoxyphenyl)-2,4-pyrimidinediamine] | 44.4 | 28.9
C#CCOc1ccc(Nc2nc(Nc3ccc(N4CCN(C)CC4)c(S(N)(=O)=O)c3)ncc2F)cc1 [VI-70, N2-[3-Aminosulfonyl-4-(1-methylpiperazin-4-yl)phenyl]-5-fluoro-N4-[4-(prop-2-ynyloxy)phenyl]-2,4-pyrimidinediamine] | 70.6 | 311
COc1cc(Nc2nc(Nc3ccc(Cl)c(S(N)(=O)=O)c3)ncc2F)ccc1Cl [VI-11, N2-(3-Aminosulfonyl-4-chlorophenyl)-N4-(4-chloro-3-methoxyphenyl)-5-fluoro-2,4-pyrimidinediamine] | 259 | 4620
C#CCOc1ccc(Nc2nc(Nc3ccc(C)c(S(N)(=O)=O)c3)ncc2F)cc1Cl [VI-59, N2-(3-Aminosulfonyl-4-methylphenyl)-N4-[3-chloro-4-(prop-2-ynyloxy)phenyl]-5-fluoro-2,4-pyrimidinediamine] | 76 | 340
NS(=O)(=O)c1cccc(Nc2ncc(F)c(Nc3ccc(CCCCO)cc3)n2)c1 [VI-89, N2-(3-Aminosulfonylphenyl)-5-fluoro-N4-[4-(4-hydroxybutyl)phenyl]-2,4-pyrimidinediamine] | 132 | 171
C#CCOc1ccc(Nc2nc(Nc3ccc(C(C)C)c(S(N)(=O)=O)c3)ncc2F)cc1 [VI-63, N2-[3-Aminosulfonyl-4-(2-propyl)phenyl]-5-fluoro-N4-[4-(prop-2-ynyloxy)phenyl]-2,4-pyrimidinediamine] | 160 | 363

Continued, in another order:

IC50 [1] [nM] | SMILES | IC50 (Primary human T-cells) [nM]
149 | Cc1ccc2cc(Nc3nc(Nc4ccc(C)c(S(N)(=O)=O)c4)ncc3F)ccc2n1 [VII-71, N2-(3-Aminosulfonyl-4-methylphenyl)-5-fluoro-N4-(2-methylquinolin-6-yl)-2,4-pyrimidinediamine] | 569
107 | Cc1ccc(Nc2ncc(F)c(Nc3ccc4sccc4c3)n2)cc1S(N)(=O)=O [VII-57, N2-(3-Aminosulfonyl-4-methylphenyl)-N4-(benzothiophen-5-yl)-5-fluoro-2,4-pyrimidinediamine] | 818
107 | Cc1cnc(Nc2cccc(S(N)(=O)=O)c2)nc1Nc1ccc2c(c1)NC(=O)CO2 [VII-32, N2-(3-Aminosulphonylphenyl)-5-methyl-N4-(3-oxo-benz[1,4]oxazin-6-yl)-2,4-pyrimidinediamine] | 32.1
602 | CN1C(=O)C(C)(C)S(=O)(=O)c2ccc(Nc3nc(Nc4ccc(S(N)(=O)=O)cc4)ncc3F)cc21 [VII-12, N2-(4-Aminosulphonylphenyl)-5-fluoro-N4-(2,2,4-trimethyl-1,1,3-trioxo-benzo[1,4]thiazin-6-yl)-2,4-pyrimidinediamine] | 6690
37.8 | CN1C(=O)CSc2ccc(Nc3nc(Nc4cccc(S(N)(=O)=O)c4)ncc3F)cc21 [VII-49, N2-(3-Aminosulfonylphenyl)-5-fluoro-N4-(4-methyl-3-oxo-benz[1,4]thiazin-6-yl)-2,4-pyrimidinediamine] | 54.9
125 | Cc1cnc(Nc2ccc(S(N)(=O)=O)cc2)nc1Nc1ccc2c(c1)NC(=O)CO2 [VII-31, N2-(4-Aminosulphonylphenyl)-5-methyl-N4-(3-oxo-benz[1,4]oxazin-6-yl)-2,4-pyrimidinediamine] | 174
44.8 | Cc1cnc(Nc2cccc(S(N)(=O)=O)c2)nc1Nc1ccc2c(c1)N(C)C(=O)CS2 [VII-35, N2-(3-Aminosulphonylphenyl)-5-methyl-N4-(4-methyl-3-oxo-benzo[1,4]thiazin-6-yl)-2,4-pyrimidinediamine] | 46.1
